Measurements taken from PMC8448092, “Inhibitory Compounds Targeting Plasmodium falciparum Gyrase B” (Antimicrobial Agents and Chemotherapy, 2021).
Where two headings read alike, the source gives them in different places.

How the values were obtained:
EcA2PfB2 [1] = target: T1, EcA2PfB2 (Plasmodium falciparum, UniProt Q8I528); assay: biochemical; format: biochemical, Plasmodium falciparum GyrB with Escherichia coli GyrA; conditions: for Sensitivity of hybrid complex to known bacterial gyrase inhibitors: supercoiling, Fig. S1D and E
Method: (§1) A supercoiling assay was utilized to test a library of compounds previously selected for binding to EcA2PfB2 but not EcGyr. The library was a kind gift from Yasumitsu Kondoh, RIKEN. The EcGyr complex was used as a control allowing selection for specific compounds that target PfB. Supercoiling assays were carried out in a buffer consisting of 35 mM Tris-HCl (pH 7.5), 24 mM KCl, 4 mM MgCl2, 2 mM DTT, 1.8 mM spermidine, 1 mM ATP, 6.5% (wt/vol) glycerol, and 0.1 mg/ml bovine serum albumin (BSA). The hybrid (EcA2PfB2) complex or EcGyr complex was formed in the storage buffer (50 mM Tris-HCl [pH 7.5], 100 mM KCl, 10% [wt/vol] glycerol, 1 mM EDTA, 2 mM DTT). In a 30-μl reaction, the gyrase complex and 0.5 μg of pBR322 relaxed DNA (Inspiralis, United Kingdom) were assembled on ice and incubated at 37°C for 30 min. The reaction was then stopped by adding an equal volume of stop solution (40% sucrose, 100 mM Tris-HCl [pH 7.5], 1 mM EDTA, 0.5 mg/ml bromophenol blue) and extracted by mixing with 30 μl chloroform-isoamyl alcohol (24:1). The samples were centrifuged at 14,000 × g for 1 min, and the aqueous phase was collected and loaded onto a 1% 1× Tris-acetate-EDTA (TAE) agarose gel. The DNA products were resolved by electrophoresis at 80 V for 120 min and visualized by UV irradiation. The images were then analyzed using ImageJ v.1.47 to obtain the intensity of the supercoiled DNA band. Gyrase with 1% dimethyl sulfoxide (DMSO) was used as the control. The percentage of supercoiled DNA (% SC) was normalized using samples with gyrase in the absence of inhibitor as the full supercoiling control and was plotted against PPG concentration. Data were fitted to the equation % SC = ae^b^[PPG], where a and b are function parameters, using OriginLab Origin (Pro) v.2020b.

EcA2PfB2 [2] = target: T1, EcA2PfB2; assay: DNA cleavage assay; format: biochemical, Plasmodium falciparum GyrB with Escherichia coli GyrA; conditions: 150 nM EcA2PfB2, supercoiled DNA, no ATP
Method: 22 The purified proteins (2 µg) were subjected to a 10% SDS PAGE and resolved by
23 electrophoresis at 180 V for 40 minutes. The protein bands were visualized by Coommassie
26 The DNA cleavage assay was performed in the same buffer conditions as for
27 supercoiling but ATP was omitted and supercoiled DNA was used instead of relaxed DNA.
28 EcA2PfB2 complex (150 nM) was incubated with 0.5 µg of supercoiled DNA in the
29 absence/presence of inhibitors for 60 min at 37 °C. In order to monitor the production of
30 linearized DNA, protein was removed by addition of 3 µl of 2% SDS and 1 µl of proteinase K
31 (>700 U) followed by further incubation at 37 °C for 30 min. The DNA was then extracted and
32 resolved in gel electrophoresis as described.

P. falciparum 3D7 [3] = assay: P. falciparum growth inhibition in vitro (SYBR green); format: cell-based; conditions: Plasmodium falciparum, 96 h of treatment
Method: Tests on parasites were performed by Anti-infectives Screening Core Services at NYU School of Medicine based on previously published protocol ([44]). P. falciparum strain 3D7 was used for all determinations. Using 96-well plates, 100 μl of P. falciparum growth medium (RPMI 1640, 25 mM HEPES, 0.1 mg/ml gentamicin, 0.05 mg/liter hypoxanthine [pH 6.75]), supplemented with 0.25% sodium bicarbonate and 0.5% Albumax II (Invitrogen), was added to each well. A 10 mM stock of PPG in DMSO was then serially diluted in triplicate. DMSO at the highest concentration used (0.5%) was tested in parallel as a control. Asynchronous P. falciparum in a 100-μl volume was then added to each well at 0.25% late-stage parasitemia with 5% hematocrit, as well as controls (medium, red blood cells, P. falciparum, or P. falciparum with 2 μM chloroquine). The plates were placed in a sealed chamber and maintained under atmospheric conditions of 5% oxygen, 5% carbon dioxide, and 90% nitrogen at 37°C for 96 h. To determine the cell viability, a SYBR green assay for rapid assessment was performed.
After incubation, plates were placed at −80°C for 24 h. The plates were then thawed at 37°C for 4 h. Once thawed, 100 μl of from each resuspended well was transferred into a black, 96-well plate. […] Plates were analyzed on a fluorescence plate reader (Victor) at excitation and emission wavelengths of 485 and 530 nm, respectively. […]

EcGyr [4] = target: T2, EcGyr (Escherichia coli, UniProt P0AES4+P0AES6); assay: ATP hydrolysis assay (malachite green), EcGyr; format: biochemical; conditions: 100 nM EcGyr
T2 construct: made in house
Method: (§2) The ATP hydrolysis reaction was performed as follows. Enzyme was incubated in the assay buffer (50 mM Tris-HCl [pH 7.5], 125 mM KCl, 1 mM EDTA, 5 mM MgCl2, 5 mM DTT, 10% glycerol) with test compounds at various concentrations, 1 mM ATP, and 10.5 nM linear pBR322 DNA for 30 min at room temperature. The protein concentrations used in the assay were as follows: 1 μM PfB, 0.5 μM EcA2PfB2, and 100 nM EcGyr. A malachite green assay kit (Sigma-Aldrich) was used to measure the released phosphate in the reaction. In brief, malachite green reagent was added to the reaction mixture, and the mixture was further incubated for 10 min. The formed color was measured at 620 nm using a plate reader (SpectraMAX190; Molecular Devices). The amount of released phosphate was calculated based on a calibration curve covering a linear range of 50 to 250 pmol using eight concentrations, which was prepared for each measurement independently. Experiments were carried out in triplicate.

PfB [5] = target: T3, PfB (Plasmodium falciparum, UniProt Q8I528); assay: Microscale thermophoresis binding to PfB
Method: (§3) Microscale thermophoresis (MST) experiments were performed using a Monolith NT.115 instrument (NanoTemper). Proteins (PfB and EcB) were labeled with Red 2nd Generation labeling kits (NanoTemper) in which the fluorescent red dye was coupled with protein via NHS coupling. Labeled protein (100 nM) was mixed with PPG (Activate Scientific, dissolved in DMSO to a final concentration of 5%) and in MST buffer {240 mM NaPi (pH 7.4), 274 mM NaCl, 54 mM KCl, 100 μM TCEP [Tris(2-carboxyethyl)phosphine hydrochloride], 0.05% Tween 20, 5% DMSO} and incubated in the dark for 15 min. The samples were applied onto capillaries (Monolith NT.115 MST Premium coated capillaries), and the fluorescence signal was measured using MO.Control software (Nanotemper). Initial fluorescence signal was used for binding analysis, and Kd was calculated using 1:1 binding model. Results were baseline corrected and normalized for amplitude using MO.Control software (Nanotemper). The Kd values were calculated based on three independent measurements. All experiments were performed at room temperature.

EcGyr [6] = target: T2, EcGyr; assay: EMSA DNA binding, EcGyr; conditions: 147 bp DNA, 200 nM complex
Method: (§4) DNA binding assays were carried out using electrophoretic mobility shift assay (EMSA) with 147 bp dsDNA (based on the preferred gyrase cleavage site from plasmid pBR322) ([31]). In brief, 20 nM DNA was mixed with 200 nM reconstituted complex (hybrid or EcGyr) or 1 μM PfB in an assay buffer (30 mM Tris-HCl [pH 7.5], 75 mM KCl, 2 mM MgCl2, 6% glycerol, 1 mM DTT) and PPG for 1 h at room temperature. The samples were resolved in a 5% polyacrylamide gel in TBM buffer (90 mM Tris-borate, pH 7.5, 4 mM MgCl2) for 1 h at 80 V. The gel was stained with SYBR gold (Thermo) and visualized under UV light.

EcA2PfB2 [7] = target: T1, EcA2PfB2; assay: EMSA DNA binding, hybrid gyrase; set-up: species or system Plasmodium falciparum GyrB with Escherichia coli GyrA; conditions: 147 bp DNA, 200 nM complex
Method: as §4

PfB [8] = target: T3, PfB; assay: ATP hydrolysis assay (malachite green), PfB; format: biochemical; conditions: 1 μM PfB
Method: as §2

PfB [9] = target: T3, PfB; assay: EMSA DNA binding, PfB; conditions: 147 bp DNA, 1 μM PfB
Method: as §4

EcA2PfB2 [10] = target: T1, EcA2PfB2; assay: ATP hydrolysis assay (malachite green), hybrid gyrase; format: biochemical, Plasmodium falciparum GyrB with Escherichia coli GyrA
Method: as §2, with “Enzyme was incubated in the assay buffer (50 mM Tris-HCl [pH 7.5], 125 mM KCl, 1 mM EDTA, 5 mM MgCl2, 5 mM DTT, 10% glycerol) with test compounds at various concentrations, 1 mM ATP, and 10.5 nM linear pBR322 DNA for 30 min at room temperature.” left out

EcB = target: T4, EcB (Escherichia coli, UniProt P0AES6); assay: Microscale thermophoresis binding to EcB; conditions: 1:1 binding model, 100 nM labeled protein, 5% DMSO, room temperature; read-out: Kd for EcB (MST)
T4 construct: made in house
Method: as §3

EcGyr [11] = target: T2, EcGyr; assay: DNA supercoiling assay, E. coli gyrase; format: biochemical; conditions: relaxed pBR322, 37°C 30 min, 1% DMSO, n = 3; read-out: IC50 supercoiling inhibitory activity, EcGyr
Method: as §1, with “Gyrase with 1% dimethyl sulfoxide (DMSO) was used as the control. The percentage of supercoiled DNA (% SC) was normalized using samples with gyrase in the absence of inhibitor as the full supercoiling control and was plotted against PPG concentration. Data were fitted to the equation % SC = ae^b^[PPG], where a and b are function parameters, using OriginLab Origin (Pro) v.2020b.” left out

P. falciparum 3D7 [12] = conditions: growth in vitro; ref [25], [33]; cited from earlier work

SMILES: O=c1c(O)cccc2cc(O)c(O)c(O)c12 [PPG, 3,9,10,11-tetrahydroxybicyclo[5.4.0]undeca-1(7),3,5,8,10-pentaen-2-one]
- IC50 (EcA2PfB2 [1]): 9.56 ± 1.94 µM
- Linear DNA formation (cleavage complex stabilization) (EcA2PfB2 [2]): did not observe any linear DNA formation
- IC50 (P. falciparum 3D7 [3]): 92 ± 16 µM
- Effect on intrinsic and enhanced ATP hydrolysis by EcB in complex with EcA (EcGyr [4]): little affected
- Kd (PfB [5]): ~1.03 µM
- Effect on DNA-EcGyr complex (EcGyr [6]): remained intact
- PPG concentration at which the DNA-EcA2PfB2 complex was disrupted (EcA2PfB2 [7]): 10 µM
- Effect on DNA-enhanced ATP hydrolysis of PfB (PfB [8]; 10.5 nM linear pBR322 DNA, 1 mM ATP): decreased this DNA-enhanced ATP hydrolysis of PfB in a dose-dependent manner
- Effect on intrinsic ATPase activity of PfB (PfB [8]; no DNA): remained unchanged
- PPG concentration at which formation of the DNA-PfB complex was inhibited (PfB [9]): approximately 20 μM
- Effect on ATPase activity of EcA2PfB2 in the absence of DNA (EcA2PfB2 [10]; 0.5 μM EcA2PfB2): decreased the ATPase activity in both the absence and presence of DNA
- Effect on DNA-induced ATPase activity of EcA2PfB2 (EcA2PfB2 [10]; 0.5 μM EcA2PfB2, with DNA): inhibited the DNA-induced ATPase activity of EcA2PfB2, although this was more modest
- Kd (EcB): ~4.54 µM
- IC50 (EcGyr [11]): > 1000 µM

SMILES: O=C1c2ccccc2C(=O)c2c1cc(S(=O)(=O)O)c(O)c2O [ARS, 1,2-dihydroxy-3-(oxysulfonyl)-9,10-anthracenedione]
- IC50 (EcA2PfB2 [1]): 55.6 ± 6.74 µM
- IC50 (EcGyr [11]): > 100 µM

SMILES: O=C(O)c1cn(C2CC2)c2cc(N3CCNCC3)c(F)cc2c1=O [CIP, ciprofloxacin, reference compound]
- Sensitivity of hybrid complex to known bacterial gyrase inhibitors (EcA2PfB2 [1]): sensitive
- IC50 (P. falciparum 3D7 [12]): 3 ± 0.5 µM

SMILES: CO[C@@H]1[C@@H](OC(N)=O)[C@@H](O)[C@H](Oc2ccc3c(O)c(NC(=O)c4ccc(O)c(CC=C(C)C)c4)c(=O)oc3c2C)OC1(C)C [Novobiocin, reference compound]
- Sensitivity of hybrid complex to known bacterial gyrase inhibitors (EcA2PfB2 [1]): sensitive
